According to patent US20080282364A1, “Phosphodiesterase 9 Inhibition as Treatment for Obesity-Related Conditions” (priority 2003, published 2008):

Tested on: ob/ob mice
Assay: Effect of pharmacologic PDE9 inhibition on body weight, food intake and plasma metabolites in ob/ob mice
Assay type: in vivo, mouse
Conditions: female ob/ob mice
Description: On Day 1, plasma glucose was determined via retro-orbital blood samples. 25 μL of blood was added to 100 μL of 0.025 percent heparinized-saline in microtubes (Denville Scientific, Inc., Metuchen, N.J.). The tubes were spun at the highest setting in a Beckman Microfuge 12 for 2 minutes. Plasma was collected for plasma glucose and triglyceride determination, as further described below. During the course of the study, body weight and food consumption were assessed, and blood samples were taken at approximately 8 am for plasma glucose and triglyceride measures, as further described below.
Plasma glucose, triglycerides, and fructosamine were measured using the Roche/Hitachi 912 Clinical Chemistry Analyzer (Roche Diagnostics Corp., Indianapolis, Ind.). Plasma cGMP was measured using the BioTrak™ enzyme-immunoassay system (Amersham, Piscataway, N.J.). Plasma insulin was assessed via a similar technique using the Mercodia ELISA Insulin kit supplied by ALPCO (Uppsala, Sweden). All assays were conducted according to each manufacturer's instructions.
Female ob/ob mice obtained from Jackson Laboratories (Bar Harbor, Me.) were used at 6 to 10 weeks of age. Mice were housed five per cage and allowed free access to water and, initially, to D11 mouse chow. Following a one week acclimation period, mice were switched to a powdered diet (Mouse Breeder/Auto-JL K20 mouse chow, PMI Feeds, Inc., St. Louis, Mo.) for three days and allowed to adapt to the diet prior to the start of the PDE9 inhibitor dosing period.
The PDE9 inhibitor compound (Compound A) was administered in powdered mouse chow that was custom ground (Research Diets, Inc., New Brunswick, N.J.) as a compound/chow admixture; compounds were mixed with the chow to achieve consumption of the specified doses ranging from 1-200 mg/kg/day. In addition to a compound-free control group, a group consuming darglitazone (1 mg/kg/day) was also included as a positive control.
Mice were randomly assigned to groups of ten with five mice per cage. Body weight was determined on Day 0 and weekly thereafter. On Day 1, retro-orbital blood samples were obtained and plasma glucose was determined as previously described. On the final day of the study, blood samples were taken for glucose, triglyceride, insulin, and cGMP measurements, as previously described.

CC(C)c1n[nH]c2c(=O)[nH]c(Cc3ccccc3OCCN3CCOCC3)nc12 [Compound A, 3-isopropyl-5-[2-(2-morpholin-4-yl-ethoxy)-benzyl]-1,6-dihydro-pyrazolo[4,3-d]pyrimidin-7-one]
plasma glucose (100 mg/kg/day (FIG. 10)): decreased | plasma triglycerides (100 mg/kg/day (FIG. 11)): decreased | body weight gain (100 mg/kg/day in chow, compared to compound-free control diet or darglitazone-treated diet (FIG. 7)): reduced body weight gain | plasma fructosamine (100 mg/kg/day, Day 16 (FIG. 12)): decreased | food intake (100 mg/kg/day, later stages of the study (FIG. 9)): no effect on food intake | reducing the normal body weight gain (dose effect) (following 2 and 4 days of treatment (FIG. 8A)): dose-dependent effect | reducing food intake (dose effect) (following 2 and 4 days of treatment (FIG. 8B)): dose-dependent effect
